# Measured values: patent US20250296938A1, “Compounds that Interact with the Ras Superfamily for the Treatment of Cancers, Inflammatory Diseases, Rasopathies, and Fibrotic Disease” (SHY Therapeutics, LLC, priority 2018, published 2025)
# Read-outs that look alike come from different tables or passages of the source.
# Experiments:
# Assay in all cases: Ras GTP binding domain inhibition assay (Cy3-GTP/Cy5-GTP competition)
# KRas G12C mutant = test system: KRas G12C mutant; parameters: species or system human; conditions: 20 μM; for KRas G12C mutant + SOS: % inh.: with SOS; for KRas G12C mutant: % inh.: without SOS
# Outline: (§1)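 Ni-plate immobilised His-Ras, overnight 4 °C; cpd 20 μM (or dilution series for IC50), 1% DMSO, 3 h RT; optional His-Sos […] last hour; Cy3- or Cy5-GTP 100 nM, 45 min RT; 3× wash; bound fluorescence read.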
# KRas Q61H mutant = test system: KRas Q61H mutant; parameters: species or system human; conditions: 20 μM; for KRas Q61H mutant + SOS: % inh.: with SOS; for KRas Q61H mutant: % inh.: without SOS
# Outline: as §1
# KRas wild type = test system: KRas wild type; parameters: species or system human; conditions: 20 μM; for KRas wild type + SOS: % inh.: with SOS; for KRas wild type: % inh.: without SOS
# Outline: as §1
# KRas G12D mutant = target: T1, KRas G12D mutant (Homo sapiens, UniProt P01116, G12D); conditions: 20 μM
# T1 construct: fused on or other part: His tag, used for capture on nickel-coated plates
# Outline: as §1
# [1] = with SOS, read-out: KRas G-12D mutant + SOS: % inh.
# [2] = without SOS, read-out: KRas G12D mutant: % inh.
Compound,KRas G12C mutant + SOS: % inh. (KRas G12C mutant),KRas G12C mutant: % inh. (KRas G12C mutant),KRas Q61H mutant + SOS: % inh. (KRas Q61H mutant),KRas Q61H mutant: % inh. (KRas Q61H mutant),KRas wild type + SOS: % inh. (KRas wild type),KRas wild type: % inh. (KRas wild type),inhibition at 20 µM (KRas G12D mutant; [1]),inhibition at 20 µM (KRas G12D mutant; [2])
O=C(c1nc(-c2ccccn2)nc(O)c1O)N1CCc2ccccc2C1 [drawing 832],B (26-50% inhibition),C (51-75% inhibition),B (26-50% inhibition),C (51-75% inhibition),B (26-50% inhibition),C (51-75% inhibition),26 to 50%,51 to 75%
Oc1nc(-c2ncc3n2CCCC3)nc2c(-c3ccccn3)csc12 [drawing 833],C (51-75% inhibition),D (76-100% inhibition),C (51-75% inhibition),C (51-75% inhibition),B (26-50% inhibition),C (51-75% inhibition),51 to 75%,51 to 75%
COc1cccc(-c2sc3nc(-c4nccn4C)nc(N4CCC(OC)C4)c3c2-c2ccccc2)c1F.Cl (stereo not shown) [drawing 838],D (76-100% inhibition),B (26-50% inhibition),D (76-100% inhibition),B (26-50% inhibition),D (76-100% inhibition),C (51-75% inhibition),51 to 75%,51 to 75%
Cc1cc(Cn2ccnc2-c2nc(O)c3scc(-c4ccccn4)c3n2)on1 [drawing 846],C (51-75% inhibition),B (26-50% inhibition),C (51-75% inhibition),B (26-50% inhibition),B (26-50% inhibition),C (51-75% inhibition),26 to 50%,51 to 75%
COC1CCN(c2nc(-c3nccn3C)nc3sc(-c4ccccc4Cl)c(-c4cscn4)c23)C1 (stereo not shown) [drawing 849],C (51-75% inhibition),B (26-50% inhibition),C (51-75% inhibition),B (26-50% inhibition),C (51-75% inhibition),C (51-75% inhibition),51 to 75%,51 to 75%
COc1cccc(Cn2ccnc2-c2nc(O)c3scc(-c4ccccn4)c3n2)c1 [drawing 850],D (76-100% inhibition),C (51-75% inhibition),D (76-100% inhibition),C (51-75% inhibition),C (51-75% inhibition),C (51-75% inhibition),51 to 75%,76 to 100%

# Next, values leading:
KRas G12C mutant + SOS: % inh. (KRas G12C mutant),KRas G12C mutant: % inh. (KRas G12C mutant),KRas Q61H mutant + SOS: % inh. (KRas Q61H mutant),KRas Q61H mutant: % inh. (KRas Q61H mutant),KRas wild type + SOS: % inh. (KRas wild type),KRas wild type: % inh. (KRas wild type),inhibition at 20 µM (KRas G12D mutant; [1]),inhibition at 20 µM (KRas G12D mutant; [2]),Compound
C (51-75% inhibition),C (51-75% inhibition),C (51-75% inhibition),C (51-75% inhibition),C (51-75% inhibition),C (51-75% inhibition),51 to 75%,76 to 100%,Oc1nc(-c2ncc3ccccn23)nc2c(-c3ccccn3)csc12 [drawing 834]
A (1-25% inhibition),B (26-50% inhibition),A (1-25% inhibition),B (26-50% inhibition),A (1-25% inhibition),A (1-25% inhibition),0%,1 to 25%,COc1ccc(Cn2cnc(-c3nc(O)c4scc(-c5ccccn5)c4n3)c2)cc1 [drawing 839]
A (1-25% inhibition),0 (0% inhibition),A (1-25% inhibition),B (26-50% inhibition),A (1-25% inhibition),A (1-25% inhibition),1 to 25%,1 to 25%,Oc1nc(-c2cn(-c3ccccc3)cn2)nc2c(-c3ccccn3)csc12 [drawing 847]
A (1-25% inhibition),0 (0% inhibition),A (1-25% inhibition),A (1-25% inhibition),A (1-25% inhibition),A (1-25% inhibition),1 to 25%,1 to 25%,Oc1nc(-c2cn3cccnc3n2)nc2c(-c3ccccn3)csc12 [drawing 848]
D (76-100% inhibition),D (76-100% inhibition),D (76-100% inhibition),C (51-75% inhibition),C (51-75% inhibition),D (76-100% inhibition),51 to 75%,76 to 100%,Oc1nc(-c2nccn2Cc2ccccn2)nc2c(-c3ccccn3)csc12 [drawing 851]
